Measurements reported in PMC7188728, “A phase I study investigation of metabolism, and disposition of [^14C]-anlotinib after an oral administration in patients with advanced refractory solid tumors” (Cancer Chemotherapy and Pharmacology, 2020).
Counter-ions that a name gives are not always drawn.

Experiments:
Assay type in all cases: in vivo, human
[1] = Total radioactivity pharmacokinetics in plasma after single oral [14C]-anlotinib hydrochloride
Procedure: The blood samples were collected before orally administration and 0.5, 2, 4, 8, 10, 12, 24, 48, 72, 96, 120, 144, 168, 192, 216, 240, 288, 312, 384, 408, 456, 480, 552, 840, 888, and 1416 h after orally administration. An aliquot of the blood samples was mixed gently and chilled immediately under − 20 °C; the remainder was centrifuged at 1660 g for 10 min at 4 °C to separate the plasma samples.
(§1) Levels of radioactivity in plasma, urine, and extracts of fecal samples were determined by mixing individual samples with 5 mL scintillation cocktail and determined by counting directly in a liquid scintillation counter (LSC). Blood, fecal homogenates, and post extraction solids were combusted with OX-501 Biological Sample Oxidizer, the ^14CO2 formed were trapped directly in 15 mL scintillation cocktail, followed by counting with LSC. Samples were assayed with a liquid scintillation counter for 5 min.
The peak concentration (Cmax) and the time to Cmax (Tmax) were obtained through the plasma concentration directly. The area under concentration–time curve up to the last measured time point (AUC0−t) was calculated by the trapezoidal rule. The k was estimated by linear regression analysis of the terminal portion of the log concentration–time data, and the elimination half-life (t1/2) was calculated through the coefficient 0.693/k. The renal clearance (CLR) was calculated by dividing the cumulative amount excreted into urine (Cum. Ae−U) by plasma AUC0−t.

[2] = Mass balance: excretion of total radioactivity in urine and feces
Procedure: The urine samples were collected before orally administration and 0–2648 h after orally administration. […] In the process of collecting urine and feces samples of the six patients, because of the excretion particularity of the drug, the samples were not collected continuously every day, but once a week or every 10 days. In this case, the calculation of excretion rate during non-collected days was the multiplication of the first-day excretion rate after non-collected days by the number of non-collected days.
as §1

[3] = Adverse events after a single dose of 14C anlotinib suspension; conditions: D1 ~ D18, N = 6
[4] = six male patients, single oral 14.15 mg/80 or 120 µCi
[5] = suspension here vs capsule in the previous study

Question: With `COc1cc2c(Oc3ccc4[nH]c(C)cc4c3F)ccnc2cc1OCC1(N)CC1` [anlotinib, 1-[[4-(4-fluoro-2-methyl-1H-indol-5-yloxy)-6-methoxyquinolin-7-yl]oxy]methyl) cyclopropanamine dihydrochloride] as the compound, how does the “AUC0-last (AUClast) of total radioactivity in plasma, average” value [1, 4] read?
Answer: The value was 4071 h∙ng Eq./g.

Question: What about the “AUC0-∞ of total radioactivity in plasma, average” value [1, 4] of the same compound?
Answer: Its value is 13,555 h∙ng Eq./g.

Question: What about the “Cmax of total radioactivity (TRA) in plasma, average” value [1, 4] of the same compound?
Answer: The value was 18.80 ng Eq./g.

Question: What about the “Tmax of total radioactivity (TRA) in plasma, average” value [1, 4] of the same compound?
Answer: The value was 4.42 h.

Question: What about the “AUC relative to the published phase I study” value [1, 5] of the same compound?
Answer: The value was “twice”.

Question: What about the “Cmax relative to the published phase I study” value [1, 5] of the same compound?
Answer: Its value is “twice”.

Question: And the “Recovery of radioactivity in feces, average” value ([2]; 0 ~ 2648 h, six patients)?
Answer: Its value is 48.52 % dose.

Question: And the “Recovery of radioactivity in urine, average” value ([2]; 0 ~ 2648 h, six patients)?
Answer: Its value is 13.51 % dose.

Question: And the “Total recovery rate of radioactivity (urine and feces), average” value ([2]; 0 ~ 2648 h, six patients)?
Answer: The value was 62.03 % dose.

Question: What about the “Feces (% dose)” value ([2]; Subject 01, 0 ~ 2648 h) of the same compound?
Answer: The value was 50.73 % dose.

Question: What about the “Total recovery rate (% dose)” value ([2]; Subject 01, 0 ~ 2648 h) of the same compound?
Answer: Its value is 66.24 % dose.

Question: What about the “Urine (% dose)” value ([2]; Subject 01, 0 ~ 2648 h) of the same compound?
Answer: Its value is 15.51 % dose.

Question: And the “Feces (% dose)” value ([2]; Subject 02, 0 ~ 2648 h)?
Answer: The value was 42.51 % dose.

Question: And the “Total recovery rate (% dose)” value ([2]; Subject 02, 0 ~ 2648 h)?
Answer: The value was 60.96 % dose.

Question: And the “Urine (% dose)” value ([2]; Subject 02, 0 ~ 2648 h)?
Answer: The value was 18.45 % dose.

Question: What about the “Feces (% dose)” value ([2]; Subject 03, 0 ~ 2648 h) of the same compound?
Answer: Its value is 38.93 % dose.

Question: What about the “Total recovery rate (% dose)” value ([2]; Subject 03, 0 ~ 2648 h) of the same compound?
Answer: The value was 50.92 % dose.

Question: What about the “Urine (% dose)” value ([2]; Subject 03, 0 ~ 2648 h) of the same compound?
Answer: The value was 11.99 % dose.

Question: And the “Feces (% dose)” value ([2]; Subject 04, 0 ~ 2648 h)?
Answer: The value was 56.80 % dose.

Question: What about the “Total recovery rate (% dose)” value ([2]; Subject 04, 0 ~ 2648 h) of the same compound?
Answer: Its value is 69.09 % dose.

Question: And the “Urine (% dose)” value ([2]; Subject 04, 0 ~ 2648 h)?
Answer: The value was 12.29 % dose.

Question: What about the “Feces (% dose)” value ([2]; Subject 05, 0 ~ 2648 h) of the same compound?
Answer: The value was 59.44 % dose.

Question: What about the “Total recovery rate (% dose)” value ([2]; Subject 05, 0 ~ 2648 h) of the same compound?
Answer: Its value is 71.86 % dose.

Question: What about the “Urine (% dose)” value ([2]; Subject 05, 0 ~ 2648 h) of the same compound?
Answer: Its value is 12.42 % dose.

Question: And the “Feces (% dose)” value ([2]; Subject 06, 0 ~ 2648 h)?
Answer: Its value is 42.69 % dose.

Question: And the “Total recovery rate (% dose)” value ([2]; Subject 06, 0 ~ 2648 h)?
Answer: Its value is 53.08 % dose.

Question: And the “Urine (% dose)” value ([2]; Subject 06, 0 ~ 2648 h)?
Answer: The value was 10.39 % dose.

Question: What about the “Radioactive concentration in feces” value ([2]; after 404–432 h) of the same compound?
Answer: The value was 4876 DPM/ml.

Question: What about the “Radioactive concentration in urine” value ([2]; after 404–432 h) of the same compound?
Answer: Its value is 279 DPM/ml.

Question: What about the “Alkaline phosphatase increased: number of cases of grade 1/2 (%)” value [3] of the same compound?
Answer: Its value is 1 (16.67%) n (%).

Question: And the “Alkaline phosphatase increased: number of cases of grade 3 (%)” value [3]?
Answer: Its value is 0 n (%).

Question: And the “Anemia: number of cases of grade 1/2 (%)” value [3]?
Answer: The value was 1 (16.67%) n (%).

Question: What about the “Anemia: number of cases of grade 3 (%)” value [3] of the same compound?
Answer: Its value is 0 n (%).

Question: And the “Aspartate aminotransferase increased: number of cases of grade 1/2 (%)” value [3]?
Answer: Its value is 0 n (%).

Question: And the “Aspartate aminotransferase increased: number of cases of grade 3 (%)” value [3]?
Answer: Its value is 1 (16.67%) n (%).

Question: And the “At least once (any adverse event): number of cases of grade 1/2 (%)” value [3]?
Answer: The value was 5 (83.33%) n (%).

Question: What about the “At least once (any adverse event): number of cases of grade 3 (%)” value [3] of the same compound?
Answer: The value was 3 (50%) n (%).

Question: And the “Constipation: number of cases of grade 1/2 (%)” value [3]?
Answer: Its value is 2 (33.33%) n (%).

Question: What about the “Constipation: number of cases of grade 3 (%)” value [3] of the same compound?
Answer: The value was 0 n (%).

Question: And the “Cough: number of cases of grade 1/2 (%)” value [3]?
Answer: The value was 1 (16.67%) n (%).

Question: And the “Cough: number of cases of grade 3 (%)” value [3]?
Answer: The value was 0 n (%).

Question: What about the “Diarrhea: number of cases of grade 1/2 (%)” value [3] of the same compound?
Answer: The value was 1 (16.67%) n (%).

Question: What about the “Diarrhea: number of cases of grade 3 (%)” value [3] of the same compound?
Answer: Its value is 0 n (%).

Question: What about the “Hemoptysis: number of cases of grade 1/2 (%)” value [3] of the same compound?
Answer: Its value is 0 n (%).

Question: What about the “Hemoptysis: number of cases of grade 3 (%)” value [3] of the same compound?
Answer: The value was 0 n (%).

Question: And the “Hypertriglyceridemia: number of cases of grade 1/2 (%)” value [3]?
Answer: The value was 1 (16.67%) n (%).

Question: What about the “Hypertriglyceridemia: number of cases of grade 3 (%)” value [3] of the same compound?
Answer: Its value is 0 n (%).

Question: And the “Hypoalbuminemia: number of cases of grade 1/2 (%)” value [3]?
Answer: The value was 3 (50%) n (%).

Question: And the “Hypoalbuminemia: number of cases of grade 3 (%)” value [3]?
Answer: The value was 0 n (%).

Question: What about the “Hypocalcemia: number of cases of grade 1/2 (%)” value [3] of the same compound?
Answer: Its value is 1 (16.67%) n (%).

Question: What about the “Hypocalcemia: number of cases of grade 3 (%)” value [3] of the same compound?
Answer: The value was 0 n (%).

Question: And the “Hypophosphatemia: number of cases of grade 1/2 (%)” value [3]?
Answer: Its value is 1 (16.67%) n (%).

Question: What about the “Hypophosphatemia: number of cases of grade 3 (%)” value [3] of the same compound?
Answer: The value was 1 (16.67%) n (%).

Question: And the “Hypothyroidism: number of cases of grade 1/2 (%)” value [3]?
Answer: Its value is 1 (16.67%) n (%).

Question: What about the “Hypothyroidism: number of cases of grade 3 (%)” value [3] of the same compound?
Answer: Its value is 0 n (%).

Question: What about the “Increased alanine aminotransferase: number of cases of grade 1/2 (%)” value [3] of the same compound?
Answer: The value was 1 (16.67%) n (%).

Question: And the “Increased alanine aminotransferase: number of cases of grade 3 (%)” value [3]?
Answer: The value was 1 (16.67%) n (%).

Question: And the “Increased blood bilirubin: number of cases of grade 1/2 (%)” value [3]?
Answer: Its value is 1 (16.67%) n (%).

Question: What about the “Increased blood bilirubin: number of cases of grade 3 (%)” value [3] of the same compound?
Answer: The value was 1 (16.67%) n (%).

Question: And the “Increased lactate dehydrogenase: number of cases of grade 1/2 (%)” value [3]?
Answer: The value was 1 (16.67%) n (%).

Question: And the “Increased lactate dehydrogenase: number of cases of grade 3 (%)” value [3]?
Answer: Its value is 0 n (%).

Question: What about the “Increased lipase: number of cases of grade 1/2 (%)” value [3] of the same compound?
Answer: The value was 2 (33.33%) n (%).

Question: And the “Increased lipase: number of cases of grade 3 (%)” value [3]?
Answer: Its value is 2 (33.33%) n (%).

Question: What about the “Increased γ-glutamyl transpeptidase: number of cases of grade 1/2 (%)” value [3] of the same compound?
Answer: Its value is 1 (16.67%) n (%).

Question: And the “Increased γ-glutamyl transpeptidase: number of cases of grade 3 (%)” value [3]?
Answer: Its value is 1 (16.67%) n (%).
